Assay results reported in patent publication US20180161314A1, “Methods for Treating Hyperuricemia and Related Diseases” (Ardea Biosciences, Inc., priority 2010, published 2018).

Test system: healthy adult subjects
Experiment: Drug 1 / febuxostat cross-over interaction study in healthy adult subjects (Examples 10-12)
Type: in vivo, human
Details: for % serum uric acid change, Mean: drug 1 200 mg qd, febuxostat 40 mg qd; for Absolute sUA reduction from baseline, Intraday peak / Absolute sUA reduction from baseline, Trough / Percent sUA reduction from baseline, Intraday peak / Percent sUA reduction from baseline, Trough: febuxostat 40 mg alone
Text: Study Objectives • To compare the multiple-dose pharmacokinetics of febuxostat in the absence versus presence of drug 1 co-administration. • To compare the multiple-dose pharmacokinetics of drug 1 in the absence versus presence of febuxostat co-administration. • To measure the effects of drug 1 and febuxostat, both alone and in combination, on serum uric acid concentrations and amounts of urate excreted into urine. • To evaluate the safety and tolerability of multiple-doses of drug 1 and febuxostat, both alone or in combination.
The study is a two or three-panel, placebo-controlled (for drug 1), double-blinded (for drug 1 and matched placebo), randomized, cross-over study with up to 54 healthy adult subjects. Each panel consisting of 18 subjects is sequentially enrolled, starting with Panel 1 (200 mg once daily dose of drug 1 or placebo), followed by Panel 2 (400 mg once daily dose of drug 1 or placebo), and followed by optional Panel 3 (100 mg to 600 mg once daily dose of drug 1 or placebo). The placebo control is included in this study to better assess safety and tolerability and the serum urate lowering effect of drug 1 in combination with febuxostat. Serum urate levels may be influenced by frequent blood draws and meal contents; therefore, the true effect on serum urate levels can be determined by correcting for placebo (subtract serum urate effect in placebo subjects from serum urate effect in active subjects).
Subjects in each panel are randomly assigned to one of two treatment sequences (Sequence A or B) after all Baseline (Day −1) procedures have been completed. Each treatment sequence within a panel consists of 9 subjects randomly assigned to receive drug 1 (6 of 9 subjects) or matching placebo (3 of 9 subjects) in a double-blinded fashion. For each treatment sequence, single-agent drug treatment is administered on Days 1 to 7 (either open-label febuxostat or double-blinded drug 1 or matched placebo by random assignment), followed by combination treatment on Days 8 to 14, and completing with the alternative single-agent drug treatment on Days 15 to 21, as follows (Panel 1 shown in FIG. 2):
Sequence A: Days 1-7: Febuxostat, 40 mg (once daily) • Days 8 to 14: drug 1, 200 mg or placebo in combination with febuxostat (once daily) • Days 15-21: drug 1, 200 mg, or placebo (once daily) Sequence B: Days 1-7: drug 1, 200 mg, or placebo (once daily) • Days 8 to 14: drug 1, 200 mg or placebo in combination with febuxostat (once daily) • Days 15-21: Febuxostat, 40 mg (once daily) […]
Serial blood samples for PK and PD assessments are collected up to 24 hours after dosing on Days 7, 14, and 21. Urine (total catch) for assays of drug 1, creatinine, and uric acid are collected starting on Day −1 (pre-treatment baseline) and after dosing on Days 7, 14, and 21. Final safety assessments are completed when subjects return to the clinic at 7±1 days after discharge from the clinic on Day 22 (Follow-Up visit on Day 29). The total volume of blood collected from each subject is approximately 518 mL.
Screening procedures to determine subject eligibility are performed 28 days before the first dose of study drug (Day 1). A total of up to 54 subjects enrolled in up to 3 panels consisting of 2 sequences each, with 9 subjects per sequence (18 subjects per panel). Subjects withdrawing after dosing are not replaced.
Subjects in Panel 1 receive a 200 mg dose of drug 1 or placebo once daily for 14 days and a 40 mg dose of febuxostat once daily for 14 days. Subjects in Panel 2 receive a 400 mg dose of drug 1 or placebo once daily for 14 days and a 40 mg dose of febuxostat once daily for 14 days. Subjects in Panel 3 receive a 100-600 mg dose of drug 1 or placebo once daily for 14 days and a 40 mg dose of febuxostat once daily for 14 days.
Subjects in Sequence A begin dosing on Day 1 with febuxostat and take their first dose of drug 1 or placebo on Day 8. […]

[1] = Week 2, Drug 1 200 mg + febuxostat 40 mg combo

**Q.** `Cc1nc(-c2ccc(OCC(C)C)c(C#N)c2)sc1C(=O)O` [Febuxostat, 2-(3-Cyano-4-isobutoxyphenyl)-4-methyl-1,3-thiazole-5-carboxylic acid, reference compound] was tested. Which “serum uric acid change from baseline, daily” value (from here on “serum uric acid change … daily”) (Day 1, Drug 1 200 mg, FBX 40 mg) did it give?
**A.** −6.4%

**Q.** And the “% serum uric acid change, Mean” value (Day 1)?
**A.** −7.5%

**Q.** And the “serum uric acid change … daily” value (Day 2, Drug 1 200 mg, FBX 40 mg)?
**A.** −25.7%

**Q.** And the “% serum uric acid change, Mean” value (Day 2)?
**A.** −23.8%

**Q.** What about the “serum uric acid change … daily” value (Day 3, Drug 1 200 mg, FBX 40 mg) of the same compound?
**A.** −33.6%

**Q.** What about the “% serum uric acid change, Mean” value (Day 3) of the same compound?
**A.** −30.5%

**Q.** And the “serum uric acid change … daily” value (Day 4, Drug 1 200 mg, FBX 40 mg)?
**A.** −37.8%

**Q.** And the “% serum uric acid change, Mean” value (Day 4)?
**A.** −34.5%

**Q.** What about the “serum uric acid change … daily” value (Day 5, Drug 1 200 mg, FBX 40 mg) of the same compound?
**A.** −37.9%

**Q.** What about the “% serum uric acid change, Mean” value (Day 5) of the same compound?
**A.** −34.3%

**Q.** What about the “serum uric acid change … daily” value (Day 6, Drug 1 200 mg, FBX 40 mg) of the same compound?
**A.** −42.6%

**Q.** What about the “% serum uric acid change, Mean” value (Day 6) of the same compound?
**A.** −38.1%

**Q.** And the “serum uric acid change … daily” value (Day 7, Drug 1 200 mg, FBX 40 mg)?
**A.** −44.6%

**Q.** And the “% serum uric acid change, Mean” value (Day 7)?
**A.** −39.0%

**Q.** What about the “serum uric acid change … daily” value (Day 8, Drug 1 200 mg, FBX 40 mg, alone or combined as labelled) of the same compound?
**A.** −42.7%

**Q.** What about the “% serum uric acid change, Mean” value (Day 8) of the same compound?
**A.** −38.9%

**Q.** And the “serum uric acid change … daily” value (Day 9, Drug 1 200 mg, FBX 40 mg, alone or combined as labelled)?
**A.** −38.1%

**Q.** And the “serum uric acid change … daily” value (Day 10, Drug 1 200 mg, FBX 40 mg, alone or combined as labelled)?
**A.** −40%

**Q.** What about the “serum uric acid change … daily” value (Day 11, Drug 1 200 mg, FBX 40 mg, alone or combined as labelled) of the same compound?
**A.** −39.2%

**Q.** What about the “serum uric acid change … daily” value (Day 12, Drug 1 200 mg, FBX 40 mg, alone or combined as labelled) of the same compound?
**A.** −36.9%

**Q.** What about the “serum uric acid change … daily” value (Day 13, Drug 1 200 mg, FBX 40 mg, alone or combined as labelled) of the same compound?
**A.** −36.8%

**Q.** What about the “serum uric acid change … daily” value (Day 14, Drug 1 200 mg, FBX 40 mg, alone or combined as labelled) of the same compound?
**A.** −42%

**Q.** What about the “serum uric acid change … daily” value (Day 15, Drug 1 200 mg, FBX 40 mg, alone or combined as labelled) of the same compound?
**A.** −39.1%

**Q.** And the “serum uric acid change … daily” value (Day 15, FBX 40 mg after combo)?
**A.** −62.3%

**Q.** What about the “serum uric acid change … daily” value (Day 16, Drug 1 200 mg alone (week 3), FBX 40 mg alone) of the same compound?
**A.** −36.5%

**Q.** And the “serum uric acid change … daily” value (Day 16, FBX 40 mg after combo)?
**A.** −50.9%

**Q.** What about the “serum uric acid change … daily” value (Day 17, Drug 1 200 mg alone (week 3), FBX 40 mg alone) of the same compound?
**A.** −35.8%

**Q.** What about the “serum uric acid change … daily” value (Day 17, FBX 40 mg after combo) of the same compound?
**A.** −45.6%

**Q.** What about the “serum uric acid change … daily” value (Day 18, Drug 1 200 mg alone (week 3), FBX 40 mg alone) of the same compound?
**A.** −36.3%

**Q.** What about the “serum uric acid change … daily” value (Day 18, FBX 40 mg after combo) of the same compound?
**A.** −45.7%

**Q.** And the “serum uric acid change … daily” value (Day 19, Drug 1 200 mg alone (week 3), FBX 40 mg alone)?
**A.** −33.6%

**Q.** And the “serum uric acid change … daily” value (Day 19, FBX 40 mg after combo)?
**A.** −41%

**Q.** What about the “serum uric acid change … daily” value (Day 20, Drug 1 200 mg alone (week 3), FBX 40 mg alone) of the same compound?
**A.** −34.3%

**Q.** What about the “serum uric acid change … daily” value (Day 20, FBX 40 mg after combo) of the same compound?
**A.** −42.9%

**Q.** And the “serum uric acid change … daily” value (Day 21, Drug 1 200 mg alone (week 3), FBX 40 mg alone)?
**A.** −37.6%

**Q.** What about the “serum uric acid change … daily” value (Day 21, FBX 40 mg after combo) of the same compound?
**A.** −49.1%

**Q.** And the “serum uric acid change … daily” value (Day 22, Drug 1 200 mg alone (week 3), FBX 40 mg alone)?
**A.** −35.2%

**Q.** What about the “serum uric acid change … daily” value (Day 22, FBX 40 mg after combo) of the same compound?
**A.** −45.7%

**Q.** And the “Absolute sUA reduction from baseline, Intraday peak” value (Week 1, Drug 1 200 mg alone)?
**A.** -3.4 mg/dL

**Q.** What about the “Absolute sUA reduction from baseline, Trough” value (Week 1, Drug 1 200 mg alone) of the same compound?
**A.** -2.8 mg/dL

**Q.** What about the “Percent sUA reduction from baseline, Intraday peak” value (Week 1, Drug 1 200 mg alone) of the same compound?
**A.** −55.3%

**Q.** What about the “Percent sUA reduction from baseline, Trough” value (shortened to “Percent sUA reduction … Trough”) (Week 1, Drug 1 200 mg alone) of the same compound?
**A.** −45.4%

**Q.** What about the “Absolute sUA reduction from baseline, Intraday peak” value [1] of the same compound?
**A.** -3.1 mg/dL

**Q.** And the “Absolute sUA reduction from baseline, Trough” value [1]?
**A.** -2.6 mg/dL

**Q.** What about the “Percent sUA reduction from baseline, Intraday peak” value [1] of the same compound?
**A.** −50.1%

**Q.** What about the “Percent sUA reduction … Trough” value [1] of the same compound?
**A.** −41.2%

**Q.** What about the “Absolute sUA reduction from baseline, Intraday peak” value (Week 3, Drug 1 200 mg alone) of the same compound?
**A.** -3.3 mg/dL

**Q.** What about the “Absolute sUA reduction from baseline, Trough” value (Week 3, Drug 1 200 mg alone) of the same compound?
**A.** -2.7 mg/dL

**Q.** And the “Percent sUA reduction from baseline, Intraday peak” value (Week 3, Drug 1 200 mg alone)?
**A.** −49.0%

**Q.** And the “Percent sUA reduction … Trough” value (Week 3, Drug 1 200 mg alone)?
**A.** −42.1%
